# Patent publication US10610608B2, “Modular imaging agents containing amino acids and peptides” (Rochester Institute of Technology, priority 2013, dated 2020)
# System: live A549 human cancer cells
# Experiment: Confocal fluorescence microscopy (CFM) of live A549 cells stained with c(RGDyK) peptide conjugates (TMIAs)
# Assay type: cell-based
# Conditions: 5 μM conjugate, 2 hours incubation, 37° C., HeNe633 laser
# Experimental: The general protocol for Confocal Microscopy by Chen, et al was followed with the following detailed procedures for cell culture and staining.
# Cell Preparation: An A549 culture obtained from the American Type Culture Collection (ATCC) was grown to 50-70% confluency in an In Vitro Scientific 35 mm culture dish with 10 mm Glass bottom well. The culture was incubated in DMEM (Dulbecco's Modified Eagle Medium) with 10% Fetal Bovine Serum (FBS) overnight at 37° C. and 5% CO2. To obtain a suspension cell culture for transfer purpose, the cells were washed with Phosphate Buffered Saline (PBS) and then 0.25% Trypsin-EDTA (1×) (Invitrogen) was added to detach the cells.
# Cell Staining: The cells were washed 3× with pre-heated PBS (Phosphate-buffered saline). 5 μM c(RGDyK) peptide conjugates (TMIAs) were added to the 10 mm glass bottom well and incubated at 37° C. and 5% CO2. Cells were then washed 4× with chilled PBS. The samples were viewed immediately under the scanning laser confocal microscope (Leica Microsystems Inc.). Confocal Microscopy Scanning: Leica TCS SP5 II AOBS Filter Free Tunable Spectral Confocal Research Microscope with Resonant Scanner and Hybrid Detectors attached to Leica DMI6000 Fully Automated Microscope was used, with 40× water immersion objective. The 405 Diode and HeNe633 lasers were employed for visualizing suspected auto-fluorescence, c(RGDyK) Cy5.5-TMIA respectively. […]
substance,measurement,value
c(RGDyK)-SMCC-DLys(Cy5.5)-Lys(Gd-DOTA)-NH2 [Compound (44)],CFM image: fluorescence of the TMIA in the cell,illuminated areas a result of fluorescence of the TMIA
